Reference: the supplement of paper PMC11061612

Tests used:
Venetoclax = compound: CC1(C)CCC(CN2CCN(c3ccc(C(=O)NS(=O)(=O)c4ccc(NCC5CCOCC5)c([N+](=O)[O-])c4)c(Oc4cnc5[nH]ccc5c4)c3)CC2)=C(c2ccc(Cl)cc2)C1 [Venetoclax]; details: max 1 µM
How it was run: (§1)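 Cancer cell lines in 1536-well plates (7.5 μl DMEM/F12 or RPMI, 10% FBS) were held 24 hours at 37°C and 5% CO2 and then dosed for 72 hours at a final DMSO of typically 0.2%. Viability was taken from CellTiter-Glo 2.0 luminescence, scaled between blank-well and DMSO-well means. Curves were fitted as two-parameter logistic models with a non-linear mixed effects model, from which the single-agent IC50 was taken.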

Selumetinib = compound: Cn1cnc2c(F)c(Nc3ccc(Br)cc3Cl)c(C(=O)NOCCO)cc21 [Selumetinib]
How it was run: as §1

Taselisib = compound: Cc1nc(-c2cn3c(n2)-c2ccc(-c4cnn(C(C)(C)C(N)=O)c4)cc2OCC3)n(C(C)C)n1 [Taselisib]; details: max 10 µM
How it was run: as §1

Trametinib = compound: CC(=O)Nc1cccc(-n2c(=O)n(C3CC3)c(=O)c3c(Nc4ccc(I)cc4F)n(C)c(=O)c(C)c32)c1 [Trametinib]; details: max 1 µM
How it was run: as §1

Savolitinib = compound: C[C@@H](c1ccc2nccn2c1)n1nnc2ncc(-c3cnn(C)c3)nc21 [Savolitinib]; details: max 1 µM
How it was run: as §1

Doxorubicin = compound: COc1cccc2c1C(=O)c1c(O)c3c(c(O)c1C2=O)C[C@@](O)(C(=O)CO)C[C@@H]3O[C@H]1C[C@H](N)[C@H](O)[C@H](C)O1 [Doxorubicin]; details: max 1 µM
How it was run: as §1

Alisertib = compound: COc1cc(Nc2ncc3c(n2)-c2ccc(Cl)cc2C(c2c(F)cccc2OC)=NC3)ccc1C(=O)O [Alisertib]; details: max 10 µM
How it was run: as §1

AZD1390 = compound: CC(C)n1c(=O)n(C)c2cnc3cc(F)c(-c4ccc(OCCCN5CCCCC5)nc4)cc3c21 [AZD1390]; details: max 0.3 µM
How it was run: as §1

Gefitinib = compound: COc1cc2ncnc(Nc3ccc(F)c(Cl)c3)c2cc1OCCCN1CCOCC1 [Gefitinib]; details: max 10 µM
How it was run: as §1

Prexasertib = compound: COc1cccc(OCCCN)c1-c1cc(Nc2cnc(C#N)cn2)n[nH]1 [Prexasertib]; details: max 1 µM
How it was run: as §1

Lapatinib = compound: CS(=O)(=O)CCNCc1ccc(-c2ccc3ncnc(Nc4ccc(OCc5cccc(F)c5)c(Cl)c4)c3c2)o1 [Lapatinib]; details: max 10 µM
How it was run: as §1

SN-38 = compound: CCc1c2c(nc3ccc(O)cc13)-c1cc3c(c(=O)n1C2)COC(=O)[C@]3(O)CC [SN-38]; details: max 0.3 µM
How it was run: as §1

Crizotinib = compound: C[C@@H](Oc1cc(-c2cnn(C3CCNCC3)c2)cnc1N)c1c(Cl)ccc(F)c1Cl [Crizotinib]; details: max 10 µM
How it was run: as §1

Capivasertib = compound: C1CN(CCC1(C(=O)N[C@@H](CCO)C2=CC=C(C=C2)Cl)N)C3=NC=NC4=C3C=CN4 [Capivasertib]
How it was run: as §1

Palbociclib = compound: CC(=O)c1c(C)c2cnc(Nc3ccc(N4CCNCC4)cn3)nc2n(C2CCCC2)c1=O [Palbociclib]; details: max 10 µM
How it was run: as §1

AZD8186 = compound: C[C@@H](Nc1cc(F)cc(F)c1)c1cc(C(=O)N(C)C)cc2c(=O)cc(N3CCOCC3)oc12 [AZD8186]; details: max 3 µM
How it was run: as §1

AZD0156 = compound: CN(C)CCCOc1ccc(-c2ccc3ncc4c(c3c2)n(C2CCOCC2)c(=O)n4C)cn1 [AZD0156]
How it was run: as §1

AZD5153 = compound: COc1nnc2ccc(N3CCC(c4ccc(OCCN5CCN(C)C(=O)[C@H]5C)cc4)CC3)nn12 [AZD5153]; details: max 1 µM
How it was run: as §1

Olaparib = compound: O=C(c1cc(Cc2n[nH]c(=O)c3ccccc23)ccc1F)N1CCN(C(=O)C2CC2)CC1 [Olaparib]; details: max 10 µM
How it was run: as §1

SG3199 = compound: CC1=CN2[C@@H](C1)C=NC3=CC(=C(C=C3C2=O)OC)OCCCCCOC4=C(C=C5C(=C4)N=C[C@@H]6CC(=CN6C5=O)C)OC [SG3199]; details: max 0.001 µM
How it was run: as §1

AZD6738 = compound: C[C@@H]1COCCN1C2=NC(=NC(=C2)C3(CC3)[S@](=N)(=O)C)C4=C5C=CNC5=NC=C4 [AZD6738]; details: max 10 µM
How it was run: as §1

AZD5991 = compound: Cc1c2c(nn1C)CSCc1cc(n(C)n1)CSc1cc(c3ccccc3c1)OCCCc1c(C(=O)O)n(C)c3c-2c(Cl)ccc13 [AZD5991]; details: max 1 µM
How it was run: as §1

Dasatinib = compound: CC1=C(C(=CC=C1)Cl)NC(=O)C2=CN=C(S2)NC3=CC(=NC(=N3)C)N4CCN(CC4)CCO [Dasatinib]; details: max 2 µM
How it was run: as §1

AZD2811 = compound: CCN(CCO)CCCOc1ccc2c(Nc3cc(CC(=O)Nc4cccc(F)c4)[nH]n3)ncnc2c1 [AZD2811]; details: max 1 µM
How it was run: as §1

AZD4320 = compound: CN(CC[C@H](CSC1=CC=CC=C1)NC2=C(C=C(C=C2)S(=O)(=O)NC(=O)C3=CC=C(C=C3)N4CCC(CC4)[C@H](C5=CC=CC=C5C6=CC=C(C=C6)Cl)O)S(=O)(=O)C(F)(F)F)CCO [AZD4320]; details: max 1 µM
How it was run: as §1

AZD7648 = compound: Cc1cc2ncnn2cc1Nc1ncc2c(n1)n(C1CCOCC1)c(=O)n2C [AZD7648]; details: max 10 µM
How it was run: as §1

AZD1775 = compound: C=CCn1c(=O)c2cnc(Nc3ccc(N4CCN(C)CC4)cc3)nc2n1-c1cccc(C(C)(C)O)n1 [AZD1775]
How it was run: as §1

Cell Line | IC50, cell viability 72 h (Venetoclax) | IC50, cell viability 72 h (Selumetinib; max 10 µM) | IC50, cell viability 72 h (Taselisib) | IC50, cell viability 72 h (Trametinib) | IC50, cell viability 72 h (Savolitinib) | IC50, cell viability 72 h (Doxorubicin) | IC50, cell viability 72 h (Alisertib) | IC50, cell viability 72 h (AZD1390) | IC50, cell viability 72 h (Gefitinib) | IC50, cell viability 72 h (Prexasertib) | IC50, cell viability 72 h (Lapatinib) | IC50, cell viability 72 h (SN-38) | IC50, cell viability 72 h (Crizotinib) | IC50, cell viability 72 h (Capivasertib; max 10 µM) | IC50, cell viability 72 h (Palbociclib) | IC50, cell viability 72 h (AZD8186) | IC50, cell viability 72 h (AZD0156; max 3 µM) | IC50, cell viability 72 h (AZD5153) | IC50, cell viability 72 h (Olaparib) | IC50, cell viability 72 h (SG3199) | IC50, cell viability 72 h (AZD6738) | IC50, cell viability 72 h (AZD5991) | IC50, cell viability 72 h (Dasatinib) | IC50, cell viability 72 h (AZD2811) | IC50, cell viability 72 h (AZD4320) | IC50, cell viability 72 h (AZD7648) | IC50, cell viability 72 h (AZD1775; max 3 µM) | IC50, cell viability 72 h (Selumetinib; max 3 µM) | IC50, cell viability 72 h (Capivasertib; max 3 µM) | IC50, cell viability 72 h (AZD0156; max 1 µM) | IC50, cell viability 72 h (AZD1775; max 1 µM)
Calu-6 (Non-Small Cell Lung Carcinoma) | > 1000 nM | 6080 nM | > 10000 nM | 72.4 nM | > 1000 nM | > 1000 nM | 5690 nM | > 300 nM | > 10000 nM | 48.1 nM | > 10000 nM | 93.4 nM | > 10000 nM | > 10000 nM | > 10000 nM | > 3000 nM | > 3000 nM | > 1000 nM | > 10000 nM | > 1 nM | 4100 nM | > 1000 nM | > 2000 nM | > 1000 nM | > 1000 nM | > 10000 nM | 784 nM | – | – | – | –
Caov-3 (Ovarian Carcinoma) | > 1000 nM | – | 5610 nM | > 1000 nM | – | 316 nM | 30.5 nM | – | – | 35.5 nM | – | 5.51 nM | – | – | – | > 3000 nM | – | – | > 10000 nM | > 1 nM | 2740 nM | > 1000 nM | – | 48.7 nM | > 1000 nM | > 10000 nM | – | > 3000 nM | > 3000 nM | > 1000 nM | 453 nM
HSC-3 (Oral Cavity Carcinoma) | > 1000 nM | > 10000 nM | 2260 nM | 216 nM | > 1000 nM | > 1000 nM | 3390 nM | > 300 nM | 6900 nM | 213 nM | 2310 nM | 18.5 nM | 5820 nM | 4550 nM | > 10000 nM | > 3000 nM | > 3000 nM | 123 nM | > 10000 nM | > 1 nM | > 10000 nM | > 1000 nM | 877 nM | > 1000 nM | > 1000 nM | > 10000 nM | 1730 nM | – | – | – | –
HTC-C3 (Thyroid Gland Carcinoma) | > 1000 nM | 941 nM | > 10000 nM | 31.8 nM | > 1000 nM | > 1000 nM | > 10000 nM | > 300 nM | > 10000 nM | 128 nM | > 10000 nM | > 300 nM | > 10000 nM | > 10000 nM | > 10000 nM | > 3000 nM | > 3000 nM | 130 nM | > 10000 nM | > 1 nM | 3090 nM | > 1000 nM | 128 nM | > 1000 nM | > 1000 nM | > 10000 nM | 2300 nM | – | – | – | –
